# Values quoted from earlier work in patent publication US6874277B2, “Method and composition for promoting and controlling growth of plants” (priority 1988, dated 2005).
# Like-named read-outs stand apart in the source and are kept apart here.
# System: tomato variety San Jose Extra Early
# Set-up: Dry wt increase: unit not given here
# Settings: duration 21 days
smiles,measurement,setting,value
"OC[C@H]1O[C@@](CO)(O[C@H]2O[C@H](CO)[C@@H](O)[C@H](O)[C@H]2O)[C@@H](O)[C@@H]1O [10% sucrose solution, sucrose]",Dry wt increase,1 spray,16
same,Mean total dry wt,"1 spray, 0 sprays 188",204 mg
same,Dry wt increase,2 sprays,41
same,Mean total dry wt,2 sprays,229 mg
same,Dry wt increase,3 sprays,50
same,Mean total dry wt,3 sprays,238 mg
same,Dry wt increase,5 sprays,93
same,Mean total dry wt,5 sprays,281 mg
same,Dry wt increase,10 sprays,163
same,Mean total dry wt,10 sprays,352 mg
same,Dry wt increase,20 sprays,408
same,Mean total dry wt,20 sprays,596 mg
